Where two headings read alike, the source gives them in different places.
Target: PI3K isoform δ (Homo sapiens (Human), UniProt O00329)
Test: TR-FRET assay of enzymatic activity of class I PI3K isoforms
Details: TR-FRET, 2× Km ATP, 2 μM PIP2, incubated for 30 minutes at 25° C.
[1] = read-out: IC50 (nM) for PI3K isoform δ (Table 3)

PI3K isoform δ, sequence (O00329 whole entry, canonical isoform): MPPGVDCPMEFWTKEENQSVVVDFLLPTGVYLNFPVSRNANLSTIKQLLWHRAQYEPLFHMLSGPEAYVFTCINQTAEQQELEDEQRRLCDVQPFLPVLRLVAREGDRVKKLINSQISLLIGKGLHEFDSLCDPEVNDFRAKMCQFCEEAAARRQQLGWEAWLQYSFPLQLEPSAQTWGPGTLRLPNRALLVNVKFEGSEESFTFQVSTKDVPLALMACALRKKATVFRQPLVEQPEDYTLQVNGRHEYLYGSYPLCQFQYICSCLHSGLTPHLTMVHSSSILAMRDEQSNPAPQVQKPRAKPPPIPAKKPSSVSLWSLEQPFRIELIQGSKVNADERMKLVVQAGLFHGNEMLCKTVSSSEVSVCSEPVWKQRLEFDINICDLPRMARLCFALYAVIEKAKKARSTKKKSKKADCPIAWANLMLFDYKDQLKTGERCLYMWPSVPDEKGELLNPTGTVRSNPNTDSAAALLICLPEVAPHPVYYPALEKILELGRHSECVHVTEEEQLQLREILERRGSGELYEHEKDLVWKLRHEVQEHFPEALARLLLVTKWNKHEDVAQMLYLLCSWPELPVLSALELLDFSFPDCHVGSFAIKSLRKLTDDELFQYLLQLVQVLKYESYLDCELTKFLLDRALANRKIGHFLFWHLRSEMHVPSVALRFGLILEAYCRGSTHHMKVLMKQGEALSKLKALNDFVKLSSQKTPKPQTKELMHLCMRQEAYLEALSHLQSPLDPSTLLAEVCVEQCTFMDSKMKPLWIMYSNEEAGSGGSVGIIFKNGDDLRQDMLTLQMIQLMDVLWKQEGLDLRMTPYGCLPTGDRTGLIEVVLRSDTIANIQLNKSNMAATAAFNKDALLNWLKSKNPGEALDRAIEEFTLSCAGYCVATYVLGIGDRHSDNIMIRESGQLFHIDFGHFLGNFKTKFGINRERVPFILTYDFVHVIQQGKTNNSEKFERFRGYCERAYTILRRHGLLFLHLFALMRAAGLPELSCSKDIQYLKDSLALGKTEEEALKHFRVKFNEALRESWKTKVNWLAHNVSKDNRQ
PI3K isoform δ, sequence (P27986 whole entry partner, canonical isoform): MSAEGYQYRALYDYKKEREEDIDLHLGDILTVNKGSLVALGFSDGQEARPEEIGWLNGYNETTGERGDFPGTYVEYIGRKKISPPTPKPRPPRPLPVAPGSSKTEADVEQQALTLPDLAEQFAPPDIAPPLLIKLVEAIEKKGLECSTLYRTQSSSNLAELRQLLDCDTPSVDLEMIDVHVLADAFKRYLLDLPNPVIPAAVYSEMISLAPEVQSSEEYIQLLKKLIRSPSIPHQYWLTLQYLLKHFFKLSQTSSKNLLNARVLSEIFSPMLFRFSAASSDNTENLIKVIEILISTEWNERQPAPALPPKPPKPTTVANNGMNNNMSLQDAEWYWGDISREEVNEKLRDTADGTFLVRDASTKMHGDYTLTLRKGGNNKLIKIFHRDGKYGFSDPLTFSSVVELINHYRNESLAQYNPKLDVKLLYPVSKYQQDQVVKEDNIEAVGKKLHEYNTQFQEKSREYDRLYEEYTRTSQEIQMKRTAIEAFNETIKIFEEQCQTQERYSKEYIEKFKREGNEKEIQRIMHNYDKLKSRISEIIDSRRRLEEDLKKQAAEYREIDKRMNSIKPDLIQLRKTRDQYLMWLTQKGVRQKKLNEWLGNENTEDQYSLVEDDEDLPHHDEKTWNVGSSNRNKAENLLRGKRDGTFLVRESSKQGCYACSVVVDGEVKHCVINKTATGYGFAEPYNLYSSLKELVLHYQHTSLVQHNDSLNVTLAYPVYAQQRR
Text: TR-FRET monitored the formation of 3,4,5-inositol triphosphate molecule that competed with fluorescently labeled PIP3 for binding to the GRP-1 pleckstrin homology domain protein. […] Class I PI3K isoforms were expressed and purified as heterodimeric recombinant proteins. All assay reagents and buffers for the TR-FRET assay were purchased from Millipore.

IC50 [1] [nM] | IC50 (IC50 (nM) for PI3K isoform δ (Table 3)) [nM] | Structure (SMILES)
6 |  | Cc1ccccc1S(=O)(=O)c1cccc2nc([C@H](C)Nc3nc(N)nc(N)c3C#N)n(-c3cccc(F)c3)c(=O)c12 [Compound 81, (S)-2,4-diamino-6-((1-(3-(3-fluorophenyl)-4-oxo-5-(o-tolylsulfonyl)-3,4-dihydroquinazolin-2-yl)ethyl)amino)pyrimidine-5-carbonitrile]
2 |  | C[C@H](Nc1nc(N)nc(N)c1C#N)c1nc2cccc(S(=O)(=O)CCN3CCCC3)c2c(=O)n1-c1cccc(F)c1 [Compound 82, (S)-2,4-diamino-6-((1-(3-(3-fluorophenyl)-4-oxo-5-((2-(pyrrolidin-1-yl)ethyl)sulfonyl)-3,4-dihydroquinazolin-2-yl)ethyl)amino)pyrimidine-5-carbonitrile]
2 |  | N#Cc1c(N)nc(N)nc1N1CCC[C@H]1c1nc2cccc(Cl)c2c(=O)n1-c1cc(F)cc(F)c1 [Compound 83, (S)-2,4-diamino-6-(2-(5-chloro-3-(3,5-difluorophenyl)-4-oxo-3,4-dihydroquinazolin-2-yl)pyrrolidin-1-yl)pyrimidine-5-carbonitrile]
4 |  | Cc1ccc(Cl)c2c(=O)n(-c3cc(F)cc(F)c3)c([C@@H]3CCCN3c3nc(N)nc(N)c3C#N)nc12 [Compound 84, (S)-2,4-diamino-6-(2-(5-chloro-3-(3,5-difluorophenyl)-8-methyl-4-oxo-3,4-dihydroquinazolin-2-yl)pyrrolidin-1-yl)pyrimidine-5-carbonitrile]
10 |  | N#Cc1c(N)nc(N)nc1N1CCC[C@H]1c1nc2c(Cl)cccc2c(=O)n1-c1cc(F)cc(F)c1 [Compound 85, (S)-2,4-diamino-6-(2-(8-chloro-3-(3,5-difluorophenyl)-4-oxo-3,4-dihydroquinazolin-2-yl)pyrrolidin-1-yl)pyrimidine-5-carbonitrile]
12 |  | Cc1cccc2c(=O)n(-c3cc(F)cc(F)c3)c([C@@H]3CCCN3c3nc(N)nc(N)c3C#N)nc12 [Compound 86, (S)-2,4-diamino-6-(2-(3-(3,5-difluorophenyl)-8-methyl-4-oxo-3,4-dihydroquinazolin-2-yl)pyrrolidin-1-yl)pyrimidine-5-carbonitrile]
23 |  | N#Cc1c(N)nc(N)nc1N1CCC[C@H]1c1nc2cccc(F)c2c(=O)n1-c1cc(F)cc(F)c1 [Compound 87, (S)-2,4-diamino-6-(2-(3-(3,5-difluorophenyl)-5-fluoro-4-oxo-3,4-dihydroquinazolin-2-yl)pyrrolidin-1-yl)pyrimidine-5-carbonitrile]
17 |  | N#Cc1cc(F)cc(-n2c([C@@H]3CCCN3c3nc(N)nc(N)c3C#N)nc3cccc(Cl)c3c2=O)c1 [Compound 88, (S)-2,4-diamino-6-(2-(5-chloro-3-(3-cyano-5-fluorophenyl)-4-oxo-3,4-dihydroquinazolin-2-yl)pyrrolidin-1-yl)pyrimidine-5-carbonitrile]
2 |  | N#Cc1c(N)nc(N)nc1N1CCC[C@H]1c1nc2cccc(C#N)c2c(=O)n1-c1ccccc1 [Compound 89, (S)-2-(1-(2,6-diamino-5-cyanopyrimidin-4-yl)pyrrolidin-2-yl)-4-oxo-3-phenyl-3,4-dihydroquinazoline-5-carbonitrile]
5 |  | N#Cc1c(N)nc(N)nc1N1CCC[C@H]1c1nc2c(C#N)cccc2c(=O)n1-c1cccc(C(F)F)c1 [Compound 90, (S)-2-(1-(2,6-diamino-5-cyanopyrimidin-4-yl)pyrrolidin-2-yl)-3-(3-(difluoromethyl)phenyl)-4-oxo-3,4-dihydroquinazoline-8-carbonitrile]
17 |  | N#Cc1c(N)nc(N)nc1N1CCC[C@H]1c1nc2c(Cl)ccc(Cl)c2c(=O)n1-c1cccc(S(N)(=O)=O)c1 [Compound 91, (S)-3-(5,8-dichloro-2-(1-(2,6-diamino-5-cyanopyrimidin-4-yl)pyrrolidin-2-yl)-4-oxoquinazolin-3(4H)-yl)benzenesulfonamide]
17 |  | C[C@H](Nc1nc(N)nc(N)c1C#N)c1nc2cccc(C3=CCNCC3)c2c(=O)n1-c1ccccc1 [Compound 93, (S)-2,4-diamino-6-((1-(4-oxo-3-phenyl-5-(1,2,3,6-tetrahydropyridin-4-yl)-3,4-dihydroquinazolin-2-yl)ethyl)amino)pyrimidine-5-carbonitrile]
2 |  | C[C@@H]1C[C@@H](c2nc3cccc(Cl)c3c(=O)n2-c2ccccc2)N(c2nc(N)nc(N)c2C#N)C1 [Compound 94, 2,4-diamino-6-((2S,4R)-2-(5-chloro-4-oxo-3-phenyl-3,4-dihydroquinazolin-2-yl)-4-methylpyrrolidin-1-yl)pyrimidine-5-carbonitrile]
160 |  | N#Cc1c(N)nc(N)nc1N1C[C@H](F)C[C@H]1c1nc2cccc(Cl)c2c(=O)n1-c1cc(F)cc(F)c1 [Compound 95, 2,4-diamino-6-((2S,4R)-2-(5-chloro-3-(3,5-difluorophenyl)-4-oxo-3,4-dihydroquinazolin-2-yl)-4-fluoropyrrolidin-1-yl)pyrimidine-5-carbonitrile]
0.1 |  | Cc1nc(N)nc(N[C@@H](C)c2nc3cccc(Cl)c3c(=O)n2-c2ccccc2)c1C#N [Compound 96, (S)-2-amino-4-((1-(5-chloro-4-oxo-3-phenyl-3,4-dihydroquinazolin-2-yl)ethyl)amino)-6-methylpyrimidine-5-carbonitrile]
10 |  | Cc1nc(N)c(C#N)c(N[C@@H](C)c2nc3cccc(Cl)c3c(=O)n2-c2ccccc2)n1 [Compound 98, (S)-4-amino-6-((1-(5-chloro-4-oxo-3-phenyl-3,4-dihydroquinazolin-2-yl)ethyl)amino)-2-methylpyrimidine-5-carbonitrile]
8400 |  | Nc1nc(N)c(Cl)c(N2CCOC[C@H]2c2nc3cccc(Cl)c3c(=O)n2-c2ccccc2)n1 [Compound 100, (R)-5-chloro-2-(4-(2,6-diamino-5-chloropyrimidin-4-yl)morpholin-3-yl)-3-phenylquinazolin-4(3H)-one]
1 |  | C[C@H](Nc1nc(N)nc(Cl)c1C#N)c1nc2cccc(Cl)c2c(=O)n1-c1ccccc1 [Compound 101, (S)-2-amino-4-chloro-6-((1-(5-chloro-4-oxo-3-phenyl-3,4-dihydroquinazolin-2-yl)ethyl)amino)pyrimidine-5-carbonitrile]
 | 30 | C[C@H](Nc1nc(N)nc(Cl)c1C#N)c1nc2cccc(F)c2c(=O)n1-c1cc(F)cc(F)c1 [Compound 102, (S)-2-amino-4-chloro-6-((1-(3-(3,5-difluorophenyl)-5-chloro-4-oxo-3-phenyl-3,4-dihydroquinazolin-2-yl)ethyl)amino)pyrimidine-5-carbonitrile]
4 |  | C[C@H](Nc1nc(Cl)nc(N)c1C#N)c1nc2cccc(Cl)c2c(=O)n1-c1ccccc1 [Compound 104, (S)-4-amino-2-chloro-6-((1-(5-chloro-4-oxo-3-phenyl-3,4-dihydroquinazolin-2-yl)ethyl)amino)pyrimidine-5-carbonitrile]
2 |  | C[C@H](Nc1nc(N)nc(Cl)c1C#N)c1nc2cccc(Cl)c2c(=O)n1-c1cc(F)cc(F)c1 [Compound 105, (S)-2-amino-4-chloro-6-((1-(5-chloro-3-(3,5-difluorophenyl)-4-oxo-3,4-dihydroquinazolin-2-yl)ethyl)amino)pyrimidine-5-carbonitrile]
0.8 |  | C[C@H](Nc1nc(F)nc(N)c1C#N)c1nc2cccc(Cl)c2c(=O)n1-c1ccccc1 [Compound 106, (S)-4-amino-6-((1-(5-chloro-4-oxo-3-phenyl-3,4-dihydroquinazolin-2-yl)ethyl)amino)-2-fluoropyrimidine-5-carbonitrile]
0.4 |  | N#Cc1c(N)nc(N)nc1N1C[C@H](NC(=O)C(F)F)C[C@H]1c1nc2cccc(Cl)c2c(=O)n1-c1ccccc1 [Compound 107, N-((3R,5S)-5-(5-chloro-4-oxo-3-phenyl-3,4-dihydroquinazolin-2-yl)-1-(2,6-diamino-5-cyanopyrimidin-4-yl)pyrrolidin-3-yl)-2,2-difluoroacetamide]
2 |  | N#Cc1c(N)nc(N)nc1N1C[C@@H](NC(=O)C(F)(F)F)C[C@H]1c1nc2cccc(Cl)c2c(=O)n1-c1ccccc1 [Compound 108, N-((3S,5S)-5-(5-chloro-4-oxo-3-phenyl-3,4-dihydroquinazolin-2-yl)-1-(2,6-diamino-5-cyanopyrimidin-4-yl)pyrrolidin-3-yl)-2,2,2-trifluoroacetamide]
0.7 |  | N#Cc1c(N)nc(N)nc1N1C[C@H](NC(=O)C(F)F)C[C@H]1c1nc2cccc(Cl)c2c(=O)n1-c1cc(F)cc(F)c1 [Compound 109, N-((3R,5S)-5-(5-chloro-3-(3,5-difluorophenyl)-4-oxo-3,4-dihydroquinazolin-2-yl)-1-(2,6-diamino-5-cyanopyrimidin-4-yl)pyrrolidin-3-yl)-2,2-difluoroacetamide]
0.9 |  | N#Cc1c(N)nc(N)nc1N1C[C@H](NC(=O)CC2CC2)C[C@H]1c1nc2cccc(Cl)c2c(=O)n1-c1ccccc1 [Compound 114, N-((3R,5S)-5-(5-chloro-4-oxo-3-phenyl-3,4-dihydroquinazolin-2-yl)-1-(2,6-diamino-5-cyanopyrimidin-4-yl)pyrrolidin-3-yl)-2,2-cyclopropylacetamide]

Structure (SMILES) | IC50 [1] [nM] | IC50 (IC50 (nM) for PI3K isoform δ (Table 3)) [nM]
Cc1nc(N)nc(N[C@@H](C)c2nc3cccc(Cl)c3c(=O)n2-c2ccccc2)c1I [Compound 97, (S)-2-(1-((2-amino-5-iodo-6-methylpyrimidin-4-yl)amino)ethyl)-5-chloro-3-phenylquinazolin-4(3H)-one] | 0.6 | 
N#Cc1c(N)nc(N)nc1N1C[C@H](NC(=O)C(F)F)C[C@H]1c1nc2cccc(F)c2c(=O)n1-c1cc(F)cc(F)c1 [Compound 111, N-((3R,5S)-1-(2,6-diamino-5-cyanopyrimidin-4-yl)-5-(3-(3,5-difluorophenyl)-5-fluoro-4-oxo-3,4-dihydroquinazolin-2-yl)pyrrolidin-3-yl)-2,2-difluoroacetamide] | 9 | 

— patent US9765060B2 (Gilead Sciences, Inc., priority 2014, dated 2017)
